Tested on: patients with negative symptoms of schizophrenia
Assay: Integrated analysis of Studies #1 and #2 (pooled ITT): PANSS-derived scores (NSFS, total, positive and negative subscales), DB, OL and whole study
Assay type: in vivo, human
Set-up: key to NSFS Score change from Baseline, Median: change from Baseline in PANSS NSFS points; higher score = more severe
Details: pooled ITT; for NSFS Score change from Baseline, Median / PANSS Negative Subscale Score change from Baseline, Mean (SD) / PANSS Negative Subscale Score change from Baseline, Median / PANSS Total Score change from Baseline, Mean (SD) / PANSS Total Score change from Baseline, Median / PANSS Positive Subscale Score change from Baseline, Mean (SD) / PANSS Positive Subscale Score change from Baseline, Median / NSFS Score change from Baseline, Mean (SD): Roluperidone Total; for NSFS Score change from Baseline, Median / PANSS Negative Subscale Score change from Baseline, Mean (SD) / PANSS Negative Subscale Score change from Baseline, Median / PANSS Total Score change from Baseline, Mean (SD) / PANSS Total Score change from Baseline, Median / NSFS Score change from Baseline, Mean (SD): DB; for NSFS Change from Active BL to Week 24, Mean (SD) / NSFS Change from Active BL to Week 24, Median / NSFS Change from Active BL to Week 52, Mean (SD) / NSFS Change from Active BL to Week 52, Median / NSFS Change from Active BL to Week 54, Mean (SD) / NSFS Change from Active BL to Week 54, Median / NSFS Change from Open-label BL to Week 24, Mean (SD) / NSFS Change from Open-label BL to Week 24, Median / NSFS Change from Open-label BL to Week 52, Mean (SD) / NSFS Change from Open-label BL to Week 52, Median / NSFS Change from Open-label BL to Week 54, Mean (SD) / NSFS Change from Open-label BL to Week 54, Median / NSFS Change from Study BL to Week 24, Mean (SD) / NSFS Change from Study BL to Week 24, Median / NSFS Change from Study BL to Week 52, Mean (SD) / NSFS Change from Study BL to Week 52, Median / NSFS Change from Study BL to Week 54, Mean (SD) / NSFS Change from Study BL to Week 54, Median: Roluperidone at Any Time
Protocol: The primary integrated analysis of the efficacy of Roluperidone compared with placebo for the treatment of negative symptoms of schizophrenia is based on the change from Baseline in the PANSS Marder's negative symptoms factor score (in this document referred to as NSFS) to Week 12. Efficacy is also supported by the analysis of change from Baseline in the PSP Total score and the CGI-S to Week 12.
The PANSS was assessed at the time points described in Table 4.
The PANSS-derived endpoints used in these studies and the integrated analyses are described in Table 5A and a summary of the individual PANSS items used by physicians and clinicians to measure the severity of the symptoms in a schizophrenia patient is provided in Table 5B. The scale is divided into three parts, a positive scale, which provides a “PANSS positive subscore”, a negative scale, which provides a “PANSS negative subscore”, and general psychopathology scale. The sum of these three parts provides a PANSS total score, which ranges from 30 to 210 (where higher scores indicate more severe symptoms). (See Kay, S. R., et al. “The positive and negative syndrome scale (PANSS) for schizophrenia,” Schizophr Bulletin, 13(2), 261-276 (1987) and Gopal, S., et al. “Improvement of Negative Symptoms in Schizophrenia with Paliperidone Palmitate 1-Month and 3-Month Long-Acting Injectables: Results from a Phase 3 Non-Inferiority Study” Neuropsychiatric Disease and Treatment, 681-690, DOI: 10.2147/NDT.5226296, both of which are incorporated by reference.)
The Efficacy data from Study Nos. 1 and 2 were pooled. The majority of patients in the pooled ITT population completed the DB period (502 patients overall, 66.3%), with similar rates in each treatment group (placebo: 69.8%, 32 mg Roluperidone: 65.3%, and 64 mg Roluperidone: 63.8%) (Table 12). The majority (62.7%) of those who completed the DB period entered the OL period. The most common reason for discontinuation during the DB period among patients overall was withdrawal of consent (15.6%), followed by adverse events (7.3%) and lack of efficacy (5.4%) (Table 12). […] Approximately twice as many patients in the Roluperidone groups (32 mg: 8.5%; 64 mg: 9.1%) discontinued due to adverse events compared with patients in the placebo group (4.3%). More patients in the placebo group discontinued due to lack of efficacy (6.7%) than in the Roluperidone groups (32 mg: 4.4%; 64 mg: 5.1%). The low number of patients who discontinued due to lack of efficacy or withdrawal of consent probably reflects a low level of worsening of positive symptoms.
The integrated analysis supporting the efficacy of Roluperidone as a treatment for the negative symptoms of schizophrenia in adults is presented below.

1H-Isoindol-1-one,2-[ [1-[2-(4-fluorophenyl)-2-oxoethyl]-4-piperidinyl]methyl]-2,3-dihydro-, hydrochloride, hydrate (1:1:2) [Roluperidone]
NSFS Score change from Baseline, Median (Week 4): −2.0 | PANSS Negative Subscale Score change from Baseline, Mean (SD) (Week 4): −2.5 (2.75) | PANSS Negative Subscale Score change from Baseline, Median (Week 4): −2.0 | PANSS Total Score change from Baseline, Mean (SD) (Week 4): −4.8 (7.13) | PANSS Total Score change from Baseline, Median (Week 4): −5.0 | PANSS Positive Subscale Score change from Baseline, Mean (SD) (Week 4): −0.4 (2.49) | PANSS Positive Subscale Score change from Baseline, Median (Week 4): 0.0 | NSFS Score change from Baseline, Mean (SD) (Week 8): −3.4 (3.25) | NSFS Score change from Baseline, Median (Week 8): −3.0 | PANSS Negative Subscale Score change from Baseline, Mean (SD) (Week 8): −3.6 (3.38) | PANSS Negative Subscale Score change from Baseline, Median (Week 8): −3.0 | PANSS Total Score change from Baseline, Mean (SD) (Week 8): −6.5 (8.35) | PANSS Total Score change from Baseline, Median (Week 8): −6.0 | PANSS Positive Subscale Score change from Baseline, Mean (SD) (Week 8): −0.5 (2.55) | PANSS Positive Subscale Score change from Baseline, Median (Week 8): 0.0 | NSFS Score change from Baseline, Mean (SD) (Week 12): −3.8 (3.39) | NSFS Score change from Baseline, Median (Week 12): −4.0 | PANSS Negative Subscale Score change from Baseline, Mean (SD) (Week 12): −4.0 (3.59) | PANSS Negative Subscale Score change from Baseline, Median (Week 12): −3.0 | PANSS Total Score change from Baseline, Mean (SD) (Week 12): −7.3 (8.66) | PANSS Total Score change from Baseline, Median (Week 12): −7.0 | PANSS Positive Subscale Score change from Baseline, Mean (SD) (Week 12): −0.6 (2.64) | PANSS Positive Subscale Score change from Baseline, Median (Week 12): 0.0 | NSFS Change from Active BL to Week 24, Mean (SD) (32 mg): −3.7 (3.45) | NSFS Change from Active BL to Week 24, Median (32 mg): −4.0 | NSFS Change from Active BL to Week 52, Mean (SD) (32 mg): −5.7 (3.95) | NSFS Change from Active BL to Week 52, Median (32 mg): −5.0 | NSFS Change from Active BL to Week 54, Mean (SD) (32 mg): −5.7 (3.55) | NSFS Change from Active BL to Week 54, Median (32 mg): −6.0 | NSFS Change from Open-label BL to Week 24, Mean (SD) (32 mg): −1.4 (2.51) | NSFS Change from Open-label BL to Week 24, Median (32 mg): −1.0 | NSFS Change from Open-label BL to Week 52, Mean (SD) (32 mg): −3.3 (3.23) | NSFS Change from Open-label BL to Week 52, Median (32 mg): −3.0 | NSFS Change from Open-label BL to Week 54, Mean (SD) (32 mg): −3.3 (3.45) | NSFS Change from Open-label BL to Week 54, Median (32 mg): −3.0 | NSFS Change from Study BL to Week 24, Mean (SD) (32 mg): −4.9 (3.61) | NSFS Change from Study BL to Week 24, Median (32 mg): −5.0 | NSFS Change from Study BL to Week 52, Mean (SD) (32 mg): −6.9 (3.95) | NSFS Change from Study BL to Week 52, Median (32 mg): −6.0 | NSFS Change from Study BL to Week 54, Mean (SD) (32 mg): −6.8 (3.80) | NSFS Change from Study BL to Week 54, Median (32 mg): −6.0 | NSFS Change from Active BL to Week 24, Mean (SD) (64 mg): −4.2 (3.92) | NSFS Change from Active BL to Week 24, Median (64 mg): −4.0 | NSFS Change from Active BL to Week 52, Mean (SD) (64 mg): −6.7 (4.23) | NSFS Change from Active BL to Week 52, Median (64 mg): −7.0 | NSFS Change from Active BL to Week 54, Mean (SD) (64 mg): −6.6 (4.40) | NSFS Change from Active BL to Week 54, Median (64 mg): −7.0 | NSFS Change from Open-label BL to Week 24, Mean (SD) (64 mg): −1.6 (3.02) | NSFS Change from Open-label BL to Week 24, Median (64 mg): −1.0 | NSFS Change from Open-label BL to Week 52, Mean (SD) (64 mg): −4.3 (3.77) | NSFS Change from Open-label BL to Week 52, Median (64 mg): −4.0 | NSFS Change from Open-label BL to Week 54, Mean (SD) (64 mg): −4.0 (3.88) | NSFS Change from Open-label BL to Week 54, Median (64 mg): −4.0 | NSFS Change from Study BL to Week 24, Mean (SD) (64 mg): −5.0 (3.49) | NSFS Change from Study BL to Week 24, Median (64 mg): −5.0 | NSFS Change from Study BL to Week 52, Mean (SD) (64 mg): −7.5 (3.61) | NSFS Change from Study BL to Week 52, Median (64 mg): −7.0 | NSFS Change from Study BL to Week 54, Mean (SD) (64 mg): −7.4 (3.81) | NSFS Change from Study BL to Week 54, Median (64 mg): −7.0 | NSFS Change from Active BL to Week 24, Mean (SD) (Total): −5.1 (3.52) | NSFS Change from Active BL to Week 24, Median (Total): −5.0 | NSFS Change from Active BL to Week 52, Mean (SD) (Total): −7.0 (3.84) | NSFS Change from Active BL to Week 52, Median (Total): −6.0 | NSFS Change from Active BL to Week 54, Mean (SD) (Total): −7.0 (3.56) | NSFS Change from Active BL to Week 54, Median (Total): −7.0 | NSFS Change from Open-label BL to Week 24, Mean (SD) (Total): −1.3 (2.56) | NSFS Change from Open-label BL to Week 24, Median (Total): −1.0 | NSFS Change from Open-label BL to Week 52, Mean (SD) (Total): −3.2 (2.99) | NSFS Change from Open-label BL to Week 52, Median (Total): −3.0 | NSFS Change from Open-label BL to Week 54, Mean (SD) (Total): −3.2 (3.29) | NSFS Change from Open-label BL to Week 54, Median (Total): −3.0 | NSFS Change from Study BL to Week 24, Mean (SD) (Total): −5.1 (3.52) | NSFS Change from Study BL to Week 24, Median (Total): −5.0 | NSFS Change from Study BL to Week 52, Mean (SD) (Total): −7.0 (3.84) | NSFS Change from Study BL to Week 52, Median (Total): −6.0 | NSFS Change from Study BL to Week 54, Mean (SD) (Total): −7.0 (3.56) | NSFS Change from Study BL to Week 54, Median (Total): −7.0

From patent US20230255953A1, “USE OF ROLUPERIDONE IN PREVENTING RELAPSE IN SCHIZOPHRENIA PATIENTS” (Minerva Neurosciences, Inc., priority 2022, published 2023)
